This passage reports EC50 results from patent publication US9278922B2 (ABBVIE INC., priority 2009, dated 2016).

Some results are limits rather than exact numbers.

This assay deals with HCV 1b-Con-1 replicon. The experiment in a line: HCV 1b-Con-1 replicon assay (luciferase reporter gene, HuH-7 cells). Format: cell-based, Hepatitis C virus (HCV) genotype 1b-Con1. The conditions noted are these: Hepatitis C virus, Huh-7, luciferase reporter gene activity in the replicon, in the presence of 5% FBS.
As usually defined, the EC50 is the midpoint of the concentration-response curve. `COC(=O)N[C@H](C(=O)N1CCC[C@H]1C(=O)Nc1ccc(CN(Cc2ccc(NC(=O)[C@@H]3CCCN3C(=O)[C@@H](NC(=O)OC)[C@@H](C)O)cc2)c2ccccc2)cc1)[C@@H](C)O` [Example 25, dimethyl[(phenylimino)bis{methanediylbenzene-4,1-diylcarbamoyl(2S)pyrrolidine-2,1-diyl[(2S,3R)-3-hydroxy-1-oxobutane-1,2-diyl]}]biscarbamate]: the EC50 lay in the range of 1 to 10 nM.
As to `O=C(Nc1ccc(CN(Cc2ccc(NC(=O)[C@@H]3CCCN3C(=O)C(c3ccccc3)N3CCCC3=O)cc2)c2ccc(F)cc2)cc1)[C@@H]1CCCN1C(=O)C(c1ccccc1)N1CCCC1=O` (single isomer, unassigned) [Example 129, (2S ,2′S)-N,N′-{[(4-fluorophenyl)imino]bis(methanediylbenzene-4,1-diyl)}bis{1-[(2-oxopyrrolidin-1-yl)(phenyl)acetyl]pyrrolidine-2-carboxamide}], the EC50 is 1 to 10 nM.
Under `COC(=O)N[C@H](C(=O)N1CCC[C@H]1C(=O)Nc1ccc(CN(Cc2ccc(NC(=O)[C@@H]3CCCN3C(=O)[C@@H](NC(=O)OC)C(C)(C)O)cc2)c2ccc(F)cc2)cc1)C(C)(C)O` [Example 98, dimethyl ([(4-fluorophenyl)imino]bis{methanediylbenzene-4,1-diylcarbamoyl(25)pyrrolidine-2,1-diyl[(2S)-3-hydroxy-3-methyl-1-oxobutane-1,2-diyl]})biscarbamate] stands under 1 nM; under `CCN(CC)[C@@H](C(=O)N1CCC[C@H]1C(=O)Nc1ccc(CN(Cc2ccc(NC(=O)[C@@H]3CCCN3C(=O)[C@@H](c3ccccc3)N(CC)CC)cc2)c2ccc(F)c(F)c2)cc1)c1ccccc1` [Example 89, (2S,2′S)-N,N′-{[(3,4-difluorophenyl)imino]bis(methanediylbenzene-4,1-diyl)}bis{1-[(2R)-2-(diethylamino)-2-phenylacetyl]pyrrolidine-2-carboxamide}], under 1 nM.
As for `O=C(Nc1ccc(CN(Cc2ccc(NC(=O)[C@@H]3C[C@@H]4CCC[C@@H]4N3C(=O)[C@@H](c3ccccc3)N3CCCCC3)cc2)c2ccc(F)cc2)cc1)[C@@H]1C[C@@H]2CCC[C@@H]2N1C(=O)[C@@H](c1ccccc1)N1CCCCC1` [Example 124, (2S,3aS,6aS,2′S,3a′S,6a′S)-N,N′-{[(4-fluorophenyl)imino]bis(methanediylbenzene-4,1-diyl)}bis{1-[(2R)-2-phenyl-2-piperidin-1-ylacetyl]octahydrocyclopenta[b]pyrrole-2-carboxamide}], the figure is under 1 nM; as for `COC(=O)N[C@H](C(=O)N1CCC[C@H]1C(=O)Nc1ccc(CN(Cc2ccc(NC(=O)[C@@H]3CCCN3C(=O)[C@@H](NC(=O)OC)C(C)(C)C)cc2)c2ccc(F)cc2)cc1)C(C)(C)C` [Example 13, Dimethyl (2S,2′S)-1,1′-((2S,2′S)-2,2′-(4,4′-(4-fluorophenylazanediyl)bis(methylene)bis(4,1-phenylene)bis(azanediyl))bis(oxomethylene)bis(pyrrolidine-2,1-diyl))bis(3,3-dimethyl-1-oxobutane-2,1-diyl)dicarbamate], under 1 nM.
On to `CCN(C(C)=O)[C@@H](C(=O)N1CCC[C@H]1C(=O)Nc1ccc(CN(Cc2ccc(NC(=O)[C@@H]3CCCN3C(=O)[C@@H](c3ccccc3)N(CC)C(C)=O)cc2)c2ccc(F)cc2)cc1)c1ccccc1` [Example 122, (2S,2′S)-N,N′-{[(4-fluorophenyl)imino]bis(methanediylbenzene-4,1-diyl)}bis(1-{(2R)-2-[acetyl(ethyl)amino]-2-phenylacetyl}pyrrolidine-2-carboxamide)], for which the EC50 was in the range of 10 to 100 nM.
As for `COC(=O)N[C@H](C(=O)N1CCC[C@H]1C(=O)Nc1cccc(CN(Cc2cccc(NC(=O)[C@@H]3CCCN3C(=O)[C@@H](NC(=O)OC)C(C)(C)C)c2)c2ccc(F)cc2)c1)C(C)(C)C` [Example 143, dimethyl ([(4-fluorophenyl)imino]bis{methanediylbenzene-3,1-diylcarbamoyl(2S)pyrrolidine-2,1-diyl[(2S)-3,3-dimethyl-1-oxobutane-1,2-diyl]})biscarbamate], the figure is under 1 nM.
